Results taken from patent publication US7335756B2, “Retinoic acid metabolizing cytochrome P450” (Cytochroma Inc., priority 2001, dated 2008).

Target: T1, CYP26-B (Homo sapiens, UniProt Q9NR63)
T1 sequence (Q9NR63 1-512): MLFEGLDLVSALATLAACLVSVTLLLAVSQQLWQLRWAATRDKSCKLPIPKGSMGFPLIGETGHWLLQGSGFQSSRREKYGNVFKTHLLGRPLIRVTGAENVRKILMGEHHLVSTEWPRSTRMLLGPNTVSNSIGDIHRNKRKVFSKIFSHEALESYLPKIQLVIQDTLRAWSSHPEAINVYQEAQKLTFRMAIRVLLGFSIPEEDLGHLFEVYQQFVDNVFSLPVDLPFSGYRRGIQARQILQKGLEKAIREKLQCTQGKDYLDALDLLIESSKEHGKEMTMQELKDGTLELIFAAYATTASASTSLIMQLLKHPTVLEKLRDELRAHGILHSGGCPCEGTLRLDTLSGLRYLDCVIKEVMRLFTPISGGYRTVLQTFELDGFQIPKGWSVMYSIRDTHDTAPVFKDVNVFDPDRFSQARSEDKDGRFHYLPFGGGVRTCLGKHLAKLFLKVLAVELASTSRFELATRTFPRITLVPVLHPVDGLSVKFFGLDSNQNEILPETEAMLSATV
Experiment: RA-metabolism cell based assay in CYP26-B-infected Sf9 cells
Conditions: 2 nM [3H]-RA
Protocol: Recombinant baculovirus expressing either P450RAI-3 or CYP26B (Bac-P450RAI-3 or Bac-CYP26B or CYP26B) was prepared and titrated by end-point dilution and infection of Sf9 cells in 96-well format. Baculovirus expressing vector was co-transfected into Sf9-insect cells. Infected cells were assessed for RA-metabolism after 72 hours post transfection using RA-metabolism cell based assay as follows: the RA-metabolism reaction was started by adding 50 μl of [^3H]-RA solution (20000 cpm, 2 nM final concentration) using an automatic repeating-pipette.
Cells were incubated for 3 hours. The reaction was stopped by adding 5 μl of 10% acetic acid. Organic and aqueous soluble radio-labelled metabolites were extracted using the Bligh-Dyer procedure.

CC1=C(/C=C/C(C)=C/C=C/C(C)=C/C(=O)O)C(C)(C)CCC1 [ATRA, all-trans-retinoic-acid]
metabolism by CYP26-B-infected Sf9-cells: metabolized ATRA and converted it to water-soluble metabolites
